# Measured values reported in patent US6337399B1, “Processes for producing 7-isoindolinequinolonecarboxylic derivatives and intermediates therefor, salts of 7-isoindolinequinolonecarboxylic acids, hydrates thereof, and composition containing the same as active ingredient” (priority 1997, dated 2002).
# Like-named read-outs stand apart in the source and are kept apart here.
# Assays:
# [1] = Solubility of each salt of T-3811 in distilled water; assay type: physicochemical; conditions: for pH: pH given beside the solubility of each salt in distilled water; for solubility at 3 h: thermodynamic from solid; for solubility at a physiologically acceptable pH: compared with the other salts of T-3811, in words
# Experimental: This sample solution is exposed to ultrasonic wave irradiation 5 (SOLID STATE 1,200, Cho-onpa Kogyo) in cold water for 3 hours and then filtered through a filter with a pore size of 0.45-μm (MILLEX-HV13, MILLIPORE).
# [2] = Solubility of T-3811 in the vicinity of neutral; assay type: physicochemical; conditions: in words
# [3] = system: Gram-positive and Gram-negative bacteria; conditions: background statement, in words; cited from earlier work
# [4] = Stability against humidity; assay type: physicochemical; conditions: in words
# [5] = about 50 mg salt in 2 ml distilled water, ultrasonic wave irradiation in cold water 3 hours, 0.45-μm filtrate, T-3811 content by liquid chromatography, read-out: Solubility
SMILES,pH [1],"solubility at 3 h [1, 5]",other results
"CC(=O)O.C[C@H]1NCc2cc(-c3ccc4c(=O)c(C(=O)O)cn(C5CC5)c4c3OC(F)F)ccc21 [Acetate, (R)-1-cyclopropyl-8-difluoromethoxy-7-(1-methyl-2,3-dihydro-1H-5-isoindolyl)-4-oxo-1,4-dihydro-3-quinolinecarboxylic acid acetate]",4.22,,solubility at 3 h ([1]; water): 6230 µg/mL
"C[C@H]1NCc2cc(-c3ccc4c(=O)c(C(=O)O)cn(C5CC5)c4c3OC(F)F)ccc21.O=C(O)CC(O)(CC(=O)O)C(=O)O [Citrate, (R)-1-cyclopropyl-8-difluoromethoxy-7-(1-methyl-2,3-dihydro-1H-5-isoindolyl)-4-oxo-1,4-dihydro-3-quinolinecarboxylic acid citrate]",3.90,420 µg/mL,
"C[C@H]1NCc2cc(-c3ccc4c(=O)c(C(=O)O)cn(C5CC5)c4c3OC(F)F)ccc21 [Example T-3811, (R)-1-cyclopropyl-8-difluoromethoxy-7-(1-methyl-2,3-dihydro-1H-5-isoindolyl)-4-oxo-1,4-dihydro-3-quinoline-carboxylic acid]",,,solubility in the vicinity of neutral [2]: low; activity against Gram-positive and Gram-negative bacteria [3]: excellent
"C[C@H]1NCc2cc(-c3ccc4c(=O)c(C(=O)O)cn(C5CC5)c4c3OC(F)F)ccc21.Cl [Hydrochloride, (R)-1-cyclopropyl-8-difluoromethoxy-7-(1-methyl-2,3-dihydro-1H-5-isoindolyl)-4-oxo-1,4-dihydro-3-quinolinecarboxylic acid hydrochloride]",3.99,,solubility at 3 h ([1]; water): 5450 µg/mL
"C[C@H](O)C(=O)O.C[C@H]1NCc2cc(-c3ccc4c(=O)c(C(=O)O)cn(C5CC5)c4c3OC(F)F)ccc21 [L-lactate, (R)-1-cyclopropyl-8-difluoromethoxy-7-(1-methyl-2,3-dihydro-1H-5-isoindolyl)-4-oxo-1,4-dihydro-3-quinolinecarboxylic acid L-lactate]",4.40,1980 µg/mL,
"C[C@H]1NCc2cc(-c3ccc4c(=O)c(C(=O)[O-])cn(C5CC5)c4c3OC(F)F)ccc21.C[C@H]1NCc2cc(-c3ccc4c(=O)c(C(=O)[O-])cn(C5CC5)c4c3OC(F)F)ccc21.[Mg+2] [Magnesium salt, magnesium salt of (R)-1-cyclopropyl-8-difluoromethoxy-7-(1-methyl-2,3-dihydro-1H-5-isoindolyl)-4-oxo-1,4-dihydro-3-quinolinecarboxylic acid]",7.58,,"Solubility ([1]; about 50 mg salt in 2 ml distilled water, ultrasonic wave irradiation in cold water 3 hours, 0.45-μm filtrate, T-3811 content by liquid chromatography): 60 µg/mL"
"CS(=O)(=O)O.C[C@H]1NCc2cc(-c3ccc4c(=O)c(C(=O)O)cn(C5CC5)c4c3OC(F)F)ccc21 [Methanesulfonate, (R)-1-cyclopropyl-8-difluoromethoxy-7-(1-methyl-2,3-dihydro-1H-5-isoindolyl)-4-oxo-1,4-dihydro-3-quinolinecarboxylic acid methanesulfonate]",3.66,16500 µg/mL,"solubility at a physiologically acceptable pH ([1]; listed as methanesulfonate of T-3811, methanesulfonate): much higher; solubility at a physiologically acceptable pH ([1]; listed as t-3811 methanesulfonate, methanesulfonate): remarkably high"
"C[C@H]1NCc2cc(-c3ccc4c(=O)c(C(=O)O)cn(C5CC5)c4c3OC(F)F)ccc21.O=P(O)(O)O [Phosphate, (R)-1-cyclopropyl-8-difluoromethoxy-7-(1-methyl-2,3-dihydro-1H-5-isoindolyl)-4-oxo-1,4-dihydro-3-quinoline-carboxylic acid phosphate]",3.29,8520 µg/mL,
"C[C@H]1NCc2cc(-c3ccc4c(=O)c(C(=O)[O-])cn(C5CC5)c4c3OC(F)F)ccc21.[Na+] [Sodium salt, sodium (R)-1-cyclopropyl-8-difluoromethoxy-7-(1-methyl-2,3-dihydro-1H-5-isoindolyl)-4-oxo-1,4-dihydro-3-quinolinecarboxylate]",10.11,2340 µg/mL,
"C[C@H]1NCc2cc(-c3ccc4c(=O)c(C(=O)O)cn(C5CC5)c4c3OC(F)F)ccc21.O=S(=O)(O)O [Sulfate, (R)-1-cyclopropyl-8-difluoromethoxy-7-(1-methyl-2,3-dihydro-1H-5-isoindolyl)-4-oxo-1,4-dihydro-3-quinolinecarboxylic acid sulfate]",3.46,1170 µg/mL,
"CS(=O)(=O)O.C[C@H]1NCc2cc(-c3ccc4c(=O)c(C(=O)O)cn(C5CC5)c4c3OC(F)F)ccc21.O [T-3811 methanesulfonate hydrate, (R)-1-cyclopropyl-8-difluoromethoxy-7-(1-methyl-2,3-dihydro-1H-5-isoindolyl)-4-oxo-1,4-dihydro-3-quinolinecarboxylic acid methanesulfonate monohydrate]",,,stability against humidity [4]: good
